Test results: patent US12077503B2, “Substituted cyclic amides and their use as herbicides” (FMC CORPORATION, priority 2015, dated 2024)

Columns and labels:
Type in all cases: in vivo
[1] = system: barnyardgrass (Echinochloa crus-galli); assay: Test G Pre-Emergence Protocol; conditions: Echinochloa crus-galli, pre-emergence, 312 h, evaluated after 13 days
Procedure, shortened: (§1)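 Pre-emergence spray, 15.625/62.5/250 g/ha, vehicle acetone:water 50:50 + 0.5% Tween 20, applied 1 d after sowing. Glasshouse 24/16° C, 14 h light, 65% RH, watered twice daily. Visual damage rating at 13 d, 0–100 scale.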

[2] = system: corn (Zea mays); assay: Test G Pre-Emergence Protocol; conditions: Zea mays, pre-emergence, 312 h, evaluated after 13 days
Procedure, shortened: as §1

[3] = system: giant foxtail (Setaria faberi); assay: Test G Pre-Emergence Protocol; conditions: Setaria faberi, pre-emergence, 312 h, evaluated after 13 days
Procedure, shortened: as §1

[4] = system: ivy-leaved morning glory (Ipomoea hederacea); assay: Test G Pre-Emergence Protocol; conditions: Ipomoea, pre-emergence, 312 h, evaluated after 13 days
Procedure, shortened: as §1

[5] = system: redroot pigweed (Amaranthus retroflexus); assay: Test G Pre-Emergence Protocol; conditions: Amaranthus retroflexus, pre-emergence, 312 h, evaluated after 13 days
Procedure, shortened: as §1

[6] = system: velvetleaf (Abutilon theophrasti); assay: Test G Pre-Emergence Protocol; conditions: Abutilon theophrasti, pre-emergence, 312 h, evaluated after 13 days
Procedure, shortened: as §1

[7] = system: barnyardgrass (Echinochloa crus-galli); assay: Test G Post-Emergence Protocol; conditions: Echinochloa crus-galli, post-emergence, 312 h, read-out: Barnyardgrass damage rating
Procedure, shortened: (§2)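 Values are percent visual injury at 13 days after treatment (0 none, 100 total). Treatment was a post-emergence spray at 15.625, 62.5 or 250 g/ha on 8-day-old pot plants kept at 24/16 °C.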

[8] = system: corn (Zea mays); assay: Test G Post-Emergence Protocol; conditions: Zea mays, post-emergence, 312 h, read-out: Corn damage rating
Procedure, shortened: as §2

[9] = system: giant foxtail (Setaria faberi); assay: Test G Post-Emergence Protocol; conditions: Setaria faberi, post-emergence, 312 h, read-out: Foxtail, Giant damage rating
Procedure, shortened: as §2

[10] = system: ivy-leaved morning glory (Ipomoea hederacea); assay: Test G Post-Emergence Protocol; conditions: Ipomoea, post-emergence, 312 h, read-out: Morningglory, Ivy-leaved damage rating
Procedure, shortened: as §2

[11] = system: redroot pigweed (Amaranthus retroflexus); assay: Test G Post-Emergence Protocol; conditions: Amaranthus retroflexus, post-emergence, 312 h, read-out: Pigweed, Redroot damage rating
Procedure, shortened: as §2

[12] = system: velvetleaf (Abutilon theophrasti); assay: Test G Post-Emergence Protocol; conditions: Abutilon theophrasti, post-emergence, 312 h, read-out: Velvetleaf damage rating
Procedure, shortened: as §2

[13] = 15.625 g ai/ha, evaluated after 13 days (100=total damage to plant; 0=no damage to plant)
[14] = 62.5 g ai/ha, evaluated after 13 days, 100=total damage to plant, 0=no damage to plant
[15] = 250 g ai/ha, evaluated after 13 days, 100=total damage to plant, 0=no damage to plant

CN1C[C@H](c2cccc(C(F)(F)F)c2)[C@@H](C(=O)Nc2cnccc2[N+](=O)[O-])C1=O (racemic) [Compound 1731]
pest or weed control at 15.625 g/ha ([1]; 15.625 g ai/ha, read-out: Barnyardgrass damage rating (100=total damage to plant; 0=no damage to plant)): 0%
pest or weed control at 62.5 g/ha ([1]; 62.5 g ai/ha, 100=total damage to plant, 0=no damage to plant, read-out: Barnyardgrass damage rating): 0%
pest or weed control at 250 g/ha ([1]; 250 g ai/ha, read-out: Barnyardgrass damage rating (100=total damage to plant; 0=no damage to plant)): 0%
plant injury at 15.625 g/ha ([2]; 15.625 g ai/ha, read-out: Corn damage rating (100=total damage to plant; 0=no damage to plant)): 0%
plant injury at 62.5 g/ha ([2]; 62.5 g ai/ha, 100=total damage to plant, 0=no damage to plant, read-out: Corn damage rating): 0%
plant injury at 250 g/ha ([2]; 250 g ai/ha, read-out: Corn damage rating (100=total damage to plant; 0=no damage to plant)): 0%
pest or weed control at 15.625 g/ha ([3]; 15.625 g ai/ha, read-out: Foxtail, Giant damage rating (100=total damage to plant; 0=no damage to plant)): 0%
pest or weed control at 62.5 g/ha ([3]; 62.5 g ai/ha, 100=total damage to plant, 0=no damage to plant, read-out: Foxtail, Giant damage rating): 0%
pest or weed control at 250 g/ha ([3]; 250 g ai/ha, read-out: Foxtail, Giant damage rating (100=total damage to plant; 0=no damage to plant)): 20%
pest or weed control at 15.625 g/ha ([4]; 15.625 g ai/ha, read-out: Morningglory, Ivy-leaved damage rating (100=total damage to plant; 0=no damage to plant)): 0%
pest or weed control at 62.5 g/ha ([4]; 62.5 g ai/ha, 100=total damage to plant, 0=no damage to plant, read-out: Morningglory, Ivy-leaved damage rating): 0%
pest or weed control at 250 g/ha ([4]; 250 g ai/ha, read-out: Morningglory, Ivy-leaved damage rating (100=total damage to plant; 0=no damage to plant)): 0%
pest or weed control at 15.625 g/ha ([5]; 15.625 g ai/ha, read-out: Pigweed, Redroot damage rating (100=total damage to plant; 0=no damage to plant)): 0%
pest or weed control at 62.5 g/ha ([5]; 62.5 g ai/ha, 100=total damage to plant, 0=no damage to plant, read-out: Pigweed, Redroot damage rating): 0%
pest or weed control at 250 g/ha ([5]; 250 g ai/ha, read-out: Pigweed, Redroot damage rating (100=total damage to plant; 0=no damage to plant)): 0%
pest or weed control at 15.625 g/ha ([6]; 15.625 g ai/ha, read-out: Velvetleaf damage rating (100=total damage to plant; 0=no damage to plant)): 0%
pest or weed control at 62.5 g/ha ([6]; 62.5 g ai/ha, 100=total damage to plant, 0=no damage to plant, read-out: Velvetleaf damage rating): 0%
pest or weed control at 250 g/ha ([6]; 250 g ai/ha, read-out: Velvetleaf damage rating (100=total damage to plant; 0=no damage to plant)): 0%
pest or weed control at 15.625 g/ha [7, 13]: 0%
pest or weed control at 62.5 g/ha [7, 14]: 0%
pest or weed control at 250 g/ha [7, 15]: 0%
plant injury at 15.625 g/ha [8, 13]: 0%
plant injury at 62.5 g/ha [8, 14]: 0%
plant injury at 250 g/ha [8, 15]: 0%
pest or weed control at 15.625 g/ha [9, 13]: 0%
pest or weed control at 62.5 g/ha [9, 14]: 0%
pest or weed control at 250 g/ha [9, 15]: 0%
pest or weed control at 15.625 g/ha [10, 13]: 0%
pest or weed control at 62.5 g/ha [10, 14]: 0%
pest or weed control at 250 g/ha [10, 15]: 0%
pest or weed control at 15.625 g/ha [11, 13]: 0%
pest or weed control at 62.5 g/ha [11, 14]: 0%
pest or weed control at 250 g/ha [11, 15]: 10%
pest or weed control at 15.625 g/ha [12, 13]: 0%
pest or weed control at 62.5 g/ha [12, 14]: 0%
pest or weed control at 250 g/ha [12, 15]: 0%
